{"source": "paper PMC9021288", "about": "(Nature Communications, 2022)", "key": {"[1]": {"tested_on": "P. falciparum Dd2-B2", "assay": "72-h flow cytometry IC50 assay, Dd2-B2 and resistant Dd2-B2", "type": "cell-based, Plasmodium falciparum", "procedure": "Replication assays were performed using a SYBR Green method as described previously. Briefly, asynchronous parasites were diluted to 0.83% parasitemia, 3% hematocrit in 30 µl medium, and added to 30 µl of diluted compounds in medium (0.1% DMSO final concentration) in black 384-wells plates. After a 72-h incubation, 30 µl of SYBR Green diluted in lysis buffer was added according to the manufacturer’s protocol (Life Technologies). Fluorescence intensity was measured on a BioTek Synergy 2 Plate Reader after 1-h incubation and was normalized to a DMSO control (100% growth) and DHA- or epoxomicin-treatment (no growth). […] Parasite survival was assessed by flow cytometry on an Accuri C6 (BD Biosciences) with BD C6 Plus software using SYBR Green and MitoTracker Deep Red FM (Life Technologies) as nuclear stain and vital dye, respectively, and data were analyzed using FlowJo (10.5.0). […] Luminescence was measured after 72 h using the Renilla-Glo(R) Luciferase Assay System (Promega E2750) and the GlomAX® Discover Multimode Microplate Reader (Promega). The luminescence values were normalized to DMSO vehicle (100% growth) and 200 nM chloroquine-treated (no growth) samples as controls."}, "[2]": {"assay": "7-day Maximum Tolerated Dose 1 (MTD1) rat study", "type": "in vivo, Wistar Han rats", "parameters": "AUC(0 - t) / Cmax / Urea / Glucose / Triglycerides: unit not given here", "conditions": "for Glucose / Triglycerides / Urea: Female; for Concentration: MTD1 females, Day 1, 60 mg/kg/day", "from_the_text": "See the summary of the study design in Supplementary Table 31. Nine-week-old Wistar (Crl:WI (Han)) rats were obtained from Charles River Laboratories (Domaine des Oncins, Saint-Germain-Nuelles, France). […] Animals were examined daily for any altered clinical signs, body weights, and food consumption. Blood samples were taken at different timepoints after the test item administration, and toxicokinetic exposure assessed under the defined experimental conditions and analyzed using Phoenix (version 6.4 and 1.4) (Supplementary Table 32). Measurements included hematology and clinical chemistry measurements. Animals were euthanized and necropsied at the end of the dosing period. At necropsy, major organ systems and tissues were collected and weighed and then examined for gross lesions as well as for microscopic changes."}}, "note": "pIC50: −log10 of the molar value. Values joined by “and” are separate entries in the source; they are usually repeats but may differ in a detail not shown here. Equal entries are not always repeated. Where two headings read alike, the source gives them in different places."}
{"smiles": "C[C@@H](CNC(=O)[C@H](O)C(C)(C)CO)NC(=O)c1cc(F)c(F)cc1F", "note": "[MMV693183]", "values": [{"measurement": "IC50 shift", "setting": "[1]; 1x10^9 Dd2-B2 selected at 12-27 nM", "value": 13, "unit": "x"}, {"measurement": "Parasite growth, dose-response (No drug = 100)", "setting": "[1]; Dd2-B2, Log concentration (M) -8.61866", "value": "46.9671 and 65.9341 and 69.186 and 60.7743"}, {"measurement": "Parasite growth, dose-response (No drug = 100)", "setting": "[1]; Dd2-B2, Log concentration (M) -8.91969", "value": "65.3709 and 69.9634 and 65.2132 and 74.7261"}, {"measurement": "Parasite growth, dose-response (No drug = 100)", "setting": "[1]; Dd2-B2, Log concentration (M) -9.22072", "value": "72.0216 and 80.9524 and 81.3953 and 76.7714"}, {"measurement": "Parasite growth, dose-response (No drug = 100)", "setting": "[1]; Dd2-B2, Log concentration (M) -9.52175", "value": "91.6867 and 88.6447 and 91.0853 and 95.8364"}, {"measurement": "Parasite growth, dose-response (No drug = 100)", "setting": "[1]; Dd2-B2, Log concentration (M) -9.82278", "value": "93.0054 and 90.8425 and 98.7403 and 95.3251"}, {"measurement": "pIC50", "setting": "[1]; Dd2-B2, read-out: IC50", "value": "8.75 and 8.56 and 8.45 and 8.52"}, {"measurement": "pIC50", "setting": "[1]; Dd2-B2, read-out: mean IC50", "value": 8.52}, {"measurement": "Parasite growth, dose-response (No drug = 100)", "setting": "[1]; FL1, Log concentration (M) -7.11351", "value": 0}, {"measurement": "Parasite growth, dose-response (No drug = 100)", "setting": "[1]; FL1, Log concentration (M) -7.41454", "value": "70.2458 and 55.9122"}, {"measurement": "Parasite growth, dose-response (No drug = 100)", "setting": "[1]; FL1, Log concentration (M) -7.71557", "value": "80.5951 and 111.824"}, {"measurement": "Parasite growth, dose-response (No drug = 100)", "setting": "[1]; FL1, Log concentration (M) -8.0166", "value": "100 and 101.689"}, {"measurement": "Parasite growth, dose-response (No drug = 100)", "setting": "[1]; FL1, Log concentration (M) -8.31763", "value": "93.5317 and 96.6216"}, {"measurement": "Parasite growth, dose-response (No drug = 100)", "setting": "[1]; FL1, Log concentration (M) -8.61866", "value": "96.119 and 101.689"}, {"measurement": "Parasite growth, dose-response (No drug = 100)", "setting": "[1]; FL1, Log concentration (M) -8.91969", "value": "78.0078 and 118.581"}, {"measurement": "Parasite growth, dose-response (No drug = 100)", "setting": "[1]; FL1, Log concentration (M) -9.22072", "value": "94.8254 and 105.068"}, {"measurement": "Parasite growth, dose-response (No drug = 100)", "setting": "[1]; FL1, Log concentration (M) -9.52175", "value": "101.294 and 83.1081"}, {"measurement": "Parasite growth, dose-response (No drug = 100)", "setting": "[1]; FL1, Log concentration (M) -9.82278", "value": "85.7697 and 115.203"}, {"measurement": "pIC50", "setting": "[1]; FL1, read-out: IC50", "value": "7.35 and 7.41"}, {"measurement": "Parasite growth, dose-response (No drug = 100)", "setting": "[1]; FL2, Log concentration (M) -7.11351", "value": 0}, {"measurement": "Parasite growth, dose-response (No drug = 100)", "setting": "[1]; FL2, Log concentration (M) -7.41454", "value": "60.4288 and 62.4542"}, {"measurement": "Parasite growth, dose-response (No drug = 100)", "setting": "[1]; FL2, Log concentration (M) -7.71557", "value": "82.846 and 84.7985"}, {"measurement": "Parasite growth, dose-response (No drug = 100)", "setting": "[1]; FL2, Log concentration (M) -8.0166", "value": "96.8811 and 77.6557"}, {"measurement": "Parasite growth, dose-response (No drug = 100)", "setting": "[1]; FL2, Log concentration (M) -8.31763", "value": "88.499 and 88.6447"}, {"measurement": "Parasite growth, dose-response (No drug = 100)", "setting": "[1]; FL2, Log concentration (M) -8.61866", "value": "105.458 and 84.9817"}, {"measurement": "Parasite growth, dose-response (No drug = 100)", "setting": "[1]; FL2, Log concentration (M) -8.91969", "value": "80.5068 and 77.1062"}, {"measurement": "Parasite growth, dose-response (No drug = 100)", "setting": "[1]; FL2, Log concentration (M) -9.22072", "value": "101.365 and 80.4029"}, {"measurement": "Parasite growth, dose-response (No drug = 100)", "setting": "[1]; FL2, Log concentration (M) -9.52175", "value": "71.345 and 104.029"}, {"measurement": "Parasite growth, dose-response (No drug = 100)", "setting": "[1]; FL2, Log concentration (M) -9.82278", "value": "92.0078 and 88.4615"}, {"measurement": "pIC50", "setting": "[1]; FL2, read-out: IC50", "value": "7.39 and 7.38"}, {"measurement": "Parasite growth, dose-response (No drug = 100)", "setting": "[1]; FL3, Log concentration (M) -7.11351", "value": 0}, {"measurement": "Parasite growth, dose-response (No drug = 100)", "setting": "[1]; FL3, Log concentration (M) -7.41454", "value": "54.4365 and 48.2063"}, {"measurement": "Parasite growth, dose-response (No drug = 100)", "setting": "[1]; FL3, Log concentration (M) -7.71557", "value": "83.9329 and 95.9641"}, {"measurement": "Parasite growth, dose-response (No drug = 100)", "setting": "[1]; FL3, Log concentration (M) -8.0166", "value": "96.6427 and 92.1525"}, {"measurement": "Parasite growth, dose-response (No drug = 100)", "setting": "[1]; FL3, Log concentration (M) -8.31763", "value": "96.6427 and 93.0493"}, {"measurement": "Parasite growth, dose-response (No drug = 100)", "setting": "[1]; FL3, Log concentration (M) -8.61866", "value": "96.1631 and 96.6368"}, {"measurement": "Parasite growth, dose-response (No drug = 100)", "setting": "[1]; FL3, Log concentration (M) -8.91969", "value": "103.118 and 89.9103"}, {"measurement": "Parasite growth, dose-response (No drug = 100)", "setting": "[1]; FL3, Log concentration (M) -9.22072", "value": "91.1271 and 102.466"}, {"measurement": "Parasite growth, dose-response (No drug = 100)", "setting": "[1]; FL3, Log concentration (M) -9.52175", "value": "106.954 and 82.7354"}, {"measurement": "Parasite growth, dose-response (No drug = 100)", "setting": "[1]; FL3, Log concentration (M) -9.82278", "value": "109.113 and 91.4798"}, {"measurement": "pIC50", "setting": "[1]; FL3, read-out: IC50", "value": 7.42}, {"measurement": "mortality", "setting": "[2]; 60, 200, 600 mg/kg/day, 7 days", "value": "no mortality occurred"}, {"measurement": "Glucose", "setting": "[2]; 60 mg/kg", "value": "6.25 and 5.62 and 5.48"}, {"measurement": "Triglycerides", "setting": "[2]; 60 mg/kg", "value": "0.3 and 0.46 and 0.39"}, {"measurement": "Urea", "setting": "[2]; 60 mg/kg", "value": "6.7 and 8 and 8.3"}, {"measurement": "Glucose", "setting": "[2]; 200 mg/kg", "value": "5.19 and 5.85 and 7.06"}, {"measurement": "Triglycerides", "setting": "[2]; 200 mg/kg", "value": "0.51 and 0.91 and 0.6"}, {"measurement": "Urea", "setting": "[2]; 200 mg/kg", "value": "7.8 and 8 and 8.4"}, {"measurement": "Glucose", "setting": "[2]; 600 mg/kg", "value": "6.4 and 7.42 and 7.56"}, {"measurement": "Triglycerides", "setting": "[2]; 600 mg/kg", "value": "0.6 and 0.51 and 0.37"}, {"measurement": "Urea", "setting": "[2]; 600 mg/kg", "value": "7.4 and 6.8 and 9.9"}, {"measurement": "Liver weight", "setting": "[2]; MTD1 60 mg/kg/day, Females", "value": 4.77, "unit": "g"}, {"measurement": "AUC(0 - t)", "setting": "[2]; MTD1 60 mg/kg/day, Females, Day 1 then Day 7", "value": 88.9}, {"measurement": "Liver weight", "setting": "[2]; MTD1 60 mg/kg/day, Males", "value": 7.73, "unit": "g"}, {"measurement": "Liver weight", "setting": "[2]; MTD1 200 mg/kg/day, Females", "value": 6.00, "unit": "g"}, {"measurement": "Liver weight", "setting": "[2]; MTD1 200 mg/kg/day, Males", "value": 8.66, "unit": "g"}, {"measurement": "Liver weight", "setting": "[2]; MTD1 600 mg/kg/day, Females", "value": 7.44, "unit": "g"}, {"measurement": "Liver weight", "setting": "[2]; MTD1 600 mg/kg/day, Males", "value": 11.22, "unit": "g"}, {"measurement": "Concentration", "setting": "[2]; 0 h", "value": "LLOQ"}, {"measurement": "Concentration", "setting": "[2]; 1 h", "value": "33.6 µM and 28.3 µM"}, {"measurement": "Concentration", "setting": "[2]; 4 h", "value": "2.9 µM and 3.29 µM"}, {"measurement": "Concentration", "setting": "[2]; 8 h", "value": "1.05 µM and 0.628 µM"}, {"measurement": "Concentration", "setting": "[2]; 24 h", "value": "LLOQ"}]}
